Experimental data taken from patent US20240066027A1 (DOMAIN THERAPEUTICS, priority 2020, published 2024).

Each compound was assayed against T1, human PAR-2 (hPAR-2) receptor expressed in HEK-293 T cells in an endogenous manner (Homo sapiens, UniProt P55085) (assay: In vitro human PAR-2 functional antagonist activity using calcium assays (Fluo4AM, FLIPR Tetra)). Settings: HEK-293 T cells stimulated by an EC80 of the 2-Furoyl-LIGRLO-NH2 peptide after 10 min incubation with compound; 20 concentrations, duplicate, two independent experiments.
T1 construct: human PAR-2 (hPAR-2) receptor expressed in HEK-293 T cells in an endogenous manner; endogenous in cells; host or cells: HEK-293 T cells
T1 sequence (P55085 26-397): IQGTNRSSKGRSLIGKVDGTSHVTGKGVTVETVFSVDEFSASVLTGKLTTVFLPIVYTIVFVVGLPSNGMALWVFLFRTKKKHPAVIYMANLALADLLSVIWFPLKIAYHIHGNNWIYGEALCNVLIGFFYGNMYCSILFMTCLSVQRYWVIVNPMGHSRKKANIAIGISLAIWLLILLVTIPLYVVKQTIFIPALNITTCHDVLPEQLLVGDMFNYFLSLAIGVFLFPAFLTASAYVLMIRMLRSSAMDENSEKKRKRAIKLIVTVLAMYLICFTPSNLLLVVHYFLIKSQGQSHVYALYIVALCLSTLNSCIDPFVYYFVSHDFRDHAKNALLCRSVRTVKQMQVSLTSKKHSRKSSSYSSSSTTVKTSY
Type: cell-based
Method: In vitro human PAR-2 functional antagonist activity using calcium assays
Examples of the present invention were tested successively for their agonist and antagonist activities on human PAR-2 (hPAR-2) receptor expressed in HEK-293 T cells in an endogenous manner. Compounds exert agonist activity if, by themselves in absence of the 2-Furoyl-LIGRLO-NH2 peptide (selective hPAR-2 agonist), they activate PAR-2; they exert antagonist activity if they decrease the action of the 2-Furoyl-LIGRLO-NH2 peptide on the receptor. The assay used to determine compound activity is based on calcium measurement.
Cell Culture: HEK-293 T cells were maintained in Dulbecco's Modified Eagle's Medium supplemented with 10% Foetal Calf Serum, 1% Penicillin/Streptomycin at 37° C./5% CO2. Flasks for tests (F75) are seeded with 6e+06 cells 24 h before the experiment at 37° C./5% CO2.
Calcium assay: Receptor activity was detected by changes in intracellular calcium measured using the fluorescent Ca^2+ sensitive dye, Fluo4AM (Molecular Probes).
The day of the assay, medium was replaced by assay buffer (HBSS 1× (Gibco 14175-053), Hepes 20 mM, MgSO4-7H2O 1 mM, Na2CO3 3.3 mM, CaCl2-2H2O 1.3 mM, 0.5% BSA, Probenecid 2.5 mM, 0.1 mg/mL Pluronic Acid) and complemented with 1 μM Fluo4AM and cells were incubated during 1:30 h at 37° C.
Cells were then detached, resuspended in assay buffer and seeded in 384 wells, transparent-flat bottom black walled plates (2e+04 cells per well). Plates were incubated at +22° C. for 20 min. Compounds stock solutions were prepared in 100% DMSO and dilutions in test buffer were carried out in polypropylene plates with a digital dispenser (D300e, Tecan). Compounds were added to the cells and intracellular Ca^2+ measurements were collected at the same time on FLIPR Tetra® (Molecular Devices) with specific filters (Exc: 470-495 nm/Em: 515-575 nm).
Agonist and antagonist activities of compounds were consecutively evaluated on the same cell plate. Agonist activity was first measured after 10 min incubation with the compound alone. Then, cells were stimulated by an EC80 of the 2-Furoyl-LIGRLO-NH2 peptide and fluorescence was recorded for an additional 5 min. EC80 of the 2-Furoyl-LIGRLO-NH2 peptide was the concentration giving 80% of the maximal 2-Furoyl-LIGRLO-NH2 response. Agonist activities are evaluated in comparison to basal signals evoked by assay buffer or maximal 2-Furoyl-LIGRLO-NH2 response. […] Antagonist activities are evaluated in comparison to basal signals evoked by assay buffer or EC80 of 2-Furoyl-LIGRLO-NH2 alone.

Row | SMILES | IC50
1 | CC(C)Cc1nn(-c2ccc(Cl)c(F)c2)c2ccc(C(=O)N3CCNC(=O)C3(C)C)nc12 [Example 62, 4-(1-(4-chloro-3-fluorophenyl)-3-isobutyl-1H-pyrazolo[4,3-b]pyridine-5-carbonyl)-3,3-dimethylpiperazin-2-one] | 20 to 10000 nM
2 | COC(=O)CN1CCN(C(=O)c2ccc3c(-c4ccc(Cl)c(F)c4)cn(C(C)(C)C)c3n2)C(C)(C)C1=O [Example 3, methyl 2-(4-(1-(tert-butyl)-3-(4-chloro-3-fluorophenyl)-1H-pyrrolo[2,3-b]pyridine-6-carbonyl)-3,3-dimethyl-2-oxopiperazin-1-yl)acetate] | < 20 nM
3 | Cc1cc(N2CCN(C(=O)c3ccc4c(-c5ccc(Cl)c(F)c5)cn(Cc5cnccn5)c4n3)C(C)(C)C2)nc(C)c1C(=O)O [Example 103, 6-(4-(3-(4-chloro-3-fluorophenyl)-1-(pyrazin-2-ylmethyl)-1H-pyrrolo[2,3-b]pyridine-6-carbonyl)-3,3-dimethylpiperazin-1-yl)-2,4-dimethylnicotinic acid] | 20 to 10000 nM
4 | CN1CNC(=O)C12CCN(C(=O)c1ccc3c(-c4ccc(Cl)c(F)c4)cn(C(C)(C)C)c3n1)CC2 [Example 209, 8-(1-(tert-butyl)-3-(4-chloro-3-fluorophenyl)-1H-pyrrolo[2,3-b]pyridine-6-carbonyl)-1-methyl-1,3,8-triazaspiro[4.5]decan-4-one] | > 10000 nM
5 | CC1(C)C(=O)NCCN1C(=O)c1ccc2c(-c3ccc(Cl)c(F)c3)cn(CC(F)(F)F)c2n1 [Example 31, 4-(3-(4-chloro-3-fluorophenyl)-1-(2,2,2-trifluoroethyl)-1H-pyrrolo[2,3-b]pyridine-6-carbonyl)-3,3-dimethylpiperazin-2-one] | 20 to 10000 nM
6 | Cc1cc(N2CCN(C(=O)c3ccc4c(-c5ccc(Cl)c(F)c5)cn(CC5(C)CCOCC5)c4n3)C(C)(C)C2)nc(C)c1C(=O)O [Example 183, 6-(4-(3-(4-chloro-3-fluorophenyl)-1-((4-methyltetrahydro-2H-pyran-4-yl)methyl)-1H-pyrrolo[2,3-b]pyridine-6-carbonyl)-3,3-dimethylpiperazin-1-yl)-2,4-dimethyinicotinic acid] | < 20 nM
7 | Cc1cc(N2CCN(C(=O)c3ccc4c(-c5ccc(Cl)c(F)c5)cn(C(C)(C)c5ccccn5)c4n3)C(C)(C)C2)nc(C)c1C(=O)O [Example 131, 6-(4-(3-(4-chloro-3-fluorophenyl)-1-(2-(pyridin-2-yl)propan-2-yl)-1H-pyrrolo[2,3-b]pyridine-6-carbonyl)-3,3-dimethylpiperazin-1-yl)-2,4-dimethylnicotinic acid] | < 20 nM
8 | CC(C)Cn1cc(-c2ccc(OC(F)(F)F)cc2)c2ccc(C(=O)N3CCNC(=O)C3(C)C)nc21 [Example 116, 4-(1-isobutyl-3-(4-(trifluoromethoxy)phenyl)-1H-pyrrolo[2,3-b]pyridine-6-carbonyl)-3,3-dimethylpiperazin-2-one] | 20 to 10000 nM
9 | Cc1cc(N2CCN(C(=O)c3ccc4c(-c5ccc(Cl)c(F)c5)cn(Cc5ccncc5)c4n3)C(C)(C)C2)nc(C)c1C(=O)O [Example 149, 6-(4-(3-(4-chloro-3-fluorophenyl)-1-(pyridin-4-ylmethyl)-1H-pyrrolo[2,3-b]pyridine-6-carbonyl)-3,3-dimethylpiperazin-1-yl)-2,4-dimethylnicotinic acid] | 20 to 10000 nM
10 | CC1(C)C(=O)NCCN1C(=O)c1ccc2c(-c3ccc(Cl)c(F)c3)cn(C(C)(C)C)c2n1 [Example 1, 4-(1-(tert-butyl)-3-(4-chloro-3-fluorophenyl)-1H-pyrrolo[2,3-b]pyridine-6-carbonyl)-3,3-dimethylpiperazin-2-one] | < 20 nM
11 | CC(C)Cc1nn(-c2ccc(Cl)cc2Cl)c2ccc(C(=O)N3CCNC(=O)C3(C)C)nc12 [Example 73, 4-(1-(2,4-dichlorophenyl)-3-isobutyl-1H-pyrazolo[4,3-b]pyridine-5-carbonyl)-3,3-dimethylpiperazin-2-one] | 20 to 10000 nM

The next lines start with the values.

Row | IC50 | SMILES
12 | > 10000 nM | COc1ccc(-c2cn(CC(C)C)c3nc(C(=O)N4CCNC(=O)C4(C)C)ccc23)cc1OC [Example 145, 4-(3-(3,4-dimethoxyphenyl)-1-isobutyl-1H-pyrrolo[2,3-b]pyridine-6-carbonyl)-3,3-dimethylpiperazin-2-one]
13 | < 20 nM | Cc1cc(N2CCN(C(=O)c3ccc4c(-c5ccc(Cl)c(F)c5)cn(C[C@H]5CCOC5)c4n3)C(C)(C)C2)nc(C)c1C(=O)O [Example 184, (R)-6-(4-(3-(4-chloro-3-fluorophenyl)-1-((tetrahydrofuran-3-yl)methyl)-1H-pyrrolo[2,3-b]pyridine-6-carbonyl)-3,3-dimethylpiperazin-1-yl)-2,4-dimethyinicotinic acid]
14 | < 20 nM | CC(C)n1cc(-c2ccc(Cl)c(F)c2)c2ccc(C(=O)N3CCNC(=O)C3(C)C)nc21 [Example 96, 4-(3-(4-chloro-3-fluorophenyl)-1-isopropyl-1H-pyrrolo[2,3-b]pyridine-6-carbonyl)-3,3-dimethylpiperazin-2-one]
15 | < 20 nM | CC(C)(C(N)=O)c1ccnc(N2CCN(C(=O)c3ccc4c(-c5ccc(Cl)c(F)c5)cn(C(C)(C)C)c4n3)C(C)(C)C2)c1 [Example 177, 2-(2-(4-(1-(tert-butyl)-3-(4-chloro-3-fluorophenyl)-1H-pyrrolo[2,3-b]pyridine-6-carbonyl)-3,3-dimethylpiperazin-1-yl)pyridin-4-yl)-2-methylpropanamide]
16 | < 20 nM | Cc1cc(N2CCN(C(=O)c3ccc4c(-c5ccc(Cl)c(F)c5)c(C(F)(F)F)n(CC(C)C)c4n3)C(C)(C)C2)nc(C)c1C(=O)O [Example 205, 6-(4-(3-(4-chloro-3-fluorophenyl)-1-isobutyl-2-(trifluoromethyl)-1H-pyrrolo[2,3-b]pyridine-6-carbonyl)-3,3-dimethylpiperazin-1-yl)-2,4-dimethyinicotinic acid]
17 | > 10000 nM | CC(C)Cc1nn(-c2ccc(Cl)c(F)c2)c2ccc(C(=O)N3CCC4(CC3)NC(=O)NC4=O)nc12 [Example 70, 8-(1-(4-chloro-3-fluorophenyl)-3-isobutyl-1H-pyrazolo[4,3-b]pyridine-5-carbonyl)-1,3,8-triazaspiro[4.5]decane-2,4-dione]
18 | 20 to 10000 nM | CC(C)(C)n1cc(-c2ccc(Cl)c(F)c2)c2ccc(C(=O)N3CCC4(CCC(=O)N4)CC3)nc21 [Example 202, 8-(1-(tert-butyl)-3-(4-chloro-3-fluorophenyl)-1H-pyrrolo[2,3-b]pyridine-6-carbonyl)-1,8-diazaspiro[4.5]decan-2-one]
19 | 20 to 10000 nM | CC(C)Cn1cc(-c2cc3ccccc3o2)c2ccc(C(=O)N3CCNC(=O)C3(C)C)nc21 [Example 224, 4-(3-(benzofuran-2-yl)-1-isobutyl-1H-pyrrolo[2,3-b]pyridine-6-carbonyl)-3,3-dimethylpiperazin-2-one]
20 | 20 to 10000 nM | CC(C)Cn1cc(-c2ccc(Cl)cc2Cl)c2ccc(C(=O)N3CCNC(=O)C3(C)C)nc21 [Example 84, 4-(3-(2,4-dichlorophenyl)-1-isobutyl-1H-pyrrolo[2,3-b]pyridine-6-carbonyl)-3,3-dimethylpiperazin-2-one]
21 | 20 to 10000 nM | CC1(C)CN(C(=O)c2ccc3c(-c4ccc(Cl)c(F)c4)cn(C(C)(C)C)c3n2)CCC1C(=O)O (stereo not shown) [Example 22, 1-(1-(tert-butyl)-3-(4-chloro-3-fluorophenyl)-1H-pyrrolo[2,3-b]pyridine-6-carbonyl)-3,3-dimethylpiperidine-4-carboxylic acid]
22 | < 20 nM | COc1cccc(Cn2cc(-c3ccc(Cl)c(F)c3)c3ccc(C(=O)N4CCN(c5cc(C)c(C(=O)O)c(C)n5)CC4(C)C)nc32)n1 [Example 161, 6-(4-(3-(4-chloro-3-fluorophenyl)-1-((6-methoxypyridin-2-yl)methyl)-1H-pyrrolo[2,3-b]pyridine-6-carbonyl)-3,3-dimethylpiperazin-1-yl)-2,4-dimethylnicotinic acid]
